In patent US20130252923A1, “SKIN-BEAUTIFYING AGENT” (MEGMILK SNOW BRAND CO., LTD., priority 2007, published 2013):

Legend:
[1] = system: hairless mice (Hos: HR-1); experiment: TEWL of the skin (Tewameter) after oral administration, animal test; assay type: in vivo; conditions: three weeks, positive control
Experimental: (§1) A skin-beautifying effect of milk-derived phospholipid was evaluated using the compositions containing milk-derived phospholipid obtained in Examples 1 and 2. In experiments 13-week-old hairless mice (Hos: HR-1) were used. […] A water content and TEWL of the skin of the tail and the base of the tail of the mice were measured at the initiation of the test and the completion of the test. Values obtained at the completion of the test were calculated by setting each value obtained at the initiation of the test as 100, and the obtained values were provided as a rate of increase. A water content of the skin and TEWL were measured with a Corneometer and a Tewameter manufactured by Courage +Khazaka electronic GmbH, respectively.

[2] = system: hairless mice (Hos: HR-1); experiment: Water content of the skin (Corneometer) after oral administration, animal test; assay type: in vivo; conditions: three weeks, positive control
Experimental: as §1

[3] = 3 mg sphingomyelin per kg body weight, oral once daily, value at initiation = 100

For sphingomyelin, the “Rate of TEWL increase” value [1, 3] was 86%, the “TEWL, times that of group A” value ([1]; 3 mg/kg sphingomyelin solely) was 0.85 times and the “Rate of water content increase” value [2, 3] was 124%. For the same substance, the “water content of the skin, times as much as the water content of the skin of group A” value ([2]; 3 mg/kg sphingomyelin solely) was 1.25 times.
